Laboratory results: patent US20180303859A1, “Agent For Preventing And/Or Treating Scleroderma” (THE UNIVERSITY OF TOKYO, priority 2015, published 2018)

Legend:
[1] = tested on: BLM-induced scleroderma model mice; test: Study on inflammation and immune abnormality in BLM-induced scleroderma model mice (FACS of CD4-positive cells, skin cytokine mRNA); type: in vivo
Method: BLM-induced scleroderma model mice were prepared by the same treatment as in Example 1 except that the bleomycin administration treatment was carried out for only one week. On the last day of the administration, bilateral inguinal lymph nodes and the spleen were removed from each mouse. After mashing the lymph nodes, lymphocytes were separated therefrom. To blood cells removed from the spleen, RBC lysis buffer (0.0017 M Trizma, Sigma-Aldrich, 0.1 M NH4Cl 2.675 g, Sigma-Aldrich) was added to separate lymphocytes. The lymphocytes were subjected to staining of surface antigens using an anti-CD3 antibody (17A2), anti-CD4 antibody (RM4-5), and anti-CD8a antibody (53-6.7). Further, stimulation was carried out with 10 ng/ml phorbol myristate acetate (Sigma-Aldrich), 1 μg/ml ionomycin (Sigma-Aldrich), and 1 μg/ml brefeldin A ([…]; BD PharMingen) for four hours, and staining of intracellular antigens was carried out using an anti-interleukin (IL)-4 antibody (11B11), anti-IL17A antibody (TC11-18HC0.1), and anti-interferon (IFN)-γ antibody (XMG1.2) (all antibodies were manufactured by BioLegend, San Diego, Calif., USA). The stained lymphocytes were analyzed using a FACS Verseflow cytometer (BD Biosciences).
Further, from the skin of the back at the injection site of each BLM-induced scleroderma model mouse, RNA was extracted by the same method as in Example 1, and the mRNA levels of IL4, IL1 b, and arginase were measured. Primers having the following sequences were used.

[2] = tested on: BLM-induced scleroderma model mice; test: Study on fibrosis in BLM-induced scleroderma model mice (dermal thickness, collagen, α-SMA-positive fibroblasts, skin mRNA); type: in vivo, C57BL/6 mice
Method: To the skin of the back of 8-week-old C57BL/6 mice (wild type), 1 mg/ml bleomycin (BLM) solution prepared with phosphate buffered saline (PBS) was intracutaneously injected at a dose of 300 μg every day for four weeks to prepare BLM-induced scleroderma model mice. A control group was provided by subcutaneous injection of the same amount of PBS. At the same time, monoammonium glycyrrhizinate (Cokey Co., Ltd.) dissolved in PBS was intraperitoneally administered at a dose of 30 mg/kg every day for four weeks. A control group was provided by intraperitoneal administration of the same amount of PBS. Using a skin biopsy punch with a diameter of 6 mm, the skin tissue at the injection site was collected, and subjected to Hematoxylin & Eosin staining to measure the dermal thickness. Further, a skin sample collected by the same method was subjected to quantification of the collagen content using a QuickZyme Total Collagen Assay kit (QuickZyme BioSciences B.V., Netherlands).
Paraffin sections were prepared using the skin of the back at the injection site of each BLM-induced scleroderma model mouse, and reacted with an anti-α-smooth muscle actin (α-SMA) antibody (Sigma-Aldrich, St. Louis, Mo., USA) according to the manufacturer's instruction provided for the VEVTOR M.O.M Immunodetection Kit (Vector laboratories, Burlingame, Calif., USA), followed by coloring with DAB (0.2 mg/ml, DOJINDO LABORATORIES, Kumamoto, JAPAN). For each mouse skin sample, three photographs of the superficial dermal layer were randomly taken for ×400 viewing areas, and the numbers of spindle-shaped cells positive for α-SMA were counted. Their average was regarded as the number of α-SMA-positive fibroblasts in the mouse. Comparison was made between the glycyrrhizic acid group and the control group.
Further, RNA was extracted from the skin of the back at the injection site of each BLM-induced scleroderma model mouse using an RNeasy min kit (Qiagen Valencia, Calif., USA), and then reverse-transcribed into cDNA using iScript cDNA Synthesis Kits (Bio-Rad, Hercules, Calif., USA). Measurement by quantitative real-time PCR was carried out using a SYBR Green PCR Master Mix (Life technologies) with ABI prism 7000 (Life technologies). The measurement was carried out in triplicate for each sample to calculate the average value. As a reference gene, Gapdh was used. The relative expression level of mRNA of the subject gene was calculated by the ^ΔΔCt method. Primers having the following sequences were used.

[3] = tested on: mice deficient for vascular endothelial cell-specific Fli1 (Fli1 flox/flox; Tie2-Cre); test: Extravasation of Evans blue dye in vascular endothelial cell-specific Fli1 deficient mice; type: in vivo; conditions: vascular endothelial cell-specific Fli1 knockout mice; intraperitoneal administration, two weeks; absorbance at 620 nm
Method: Subsequently, under the same conditions as in Example 1, monoammonium glycyrrhizinate or PBS was intraperitoneally administered to 10-week-old mice deficient for vascular endothelial cell-specific Fli1 (Fli1 flox/flox; Tie2-Cre: see American Journal of Pathology, April 2010 Volume 176, Issue 4, p 1983-1998), which are model mice for angiopathy in scleroderma, or to control mice (Fli1 flox/flox). Two weeks later, 200 μl of Evans blue dye (0.5% in PBS) was administered into the tail vein of each mouse, and the mouse was euthanized 30 minutes thereafter, followed by incision of the skin from the middle of the abdomen. Cutaneous blood vessels were macroscopically observed from the dermal side to evaluate the degree of leakage of the dye. Further, for measurement of extravasation of Evans blue, skin was collected from three positions using a skin biopsy punch with a diameter of 4 mm, and then allowed to dissolve in formamide at 37° C. for 24 hours, followed by measurement of the absorbance at a wavelength of 620 nm using a microplate reader.

[4] = tested on: BLM-induced scleroderma model mice; test: Endothelial-to-mesenchymal transition (Endo-MT) in skin of BLM-induced scleroderma model mice (VE-cadherin/FSP1 immunostaining, Snail1 mRNA); type: in vivo
Method: Paraffin sections were prepared using skin samples of the injection site of BLM-induced scleroderma model mice prepared under the same conditions as in Example 1. A rabbit anti-VE-cadherin antibody (Santa Cruz Biotechnolog) and a goat anti-fibroblast-specific protein 1 (FSP1) antibody (abcam, Cambridge, UK) as primary antibodies, and an FITC-conjugated donkey anti-rabbit IgG antibody (Santa Cruz Biotechnolog) and an Alexa Fluor donkey 555 anti-goat IgG antibody (Invitrogen, Carlsbad, Calif., USA) as secondary antibodies, were reacted with the sections, and nuclear staining was performed using Vectashield with DAPI (Vector Laboratories, Burlingame, Calif., USA). Observation was carried out using Bio Zero BZ-8000 (Keyence, Osaka, Japan) at wavelengths of 495 nm (green), 565 nm (red), and 400 nm (blue). The number of cells stained with both FSP1 and VE-Cadherin, which are observed as green color and red color, respectively (cells that had undergone Endo-MT), was compared. Further, from the skin samples, RNA was extracted by the same method as in Example 1, and the mRNA level of Snail1 was measured. Primers having the following sequences were used.

[5] = lymph nodes or spleen, BLM for one week, FACS
[6] = skin tissue of BLM-induced scleroderma model mice
[7] = skin of BLM-induced scleroderma model mice, quantitative real-time PCR

CC1(C)[C@@H](O[C@H]2O[C@H](C(=O)O)[C@@H](O)[C@H](O)[C@H]2O[C@@H]2O[C@H](C(=O)O)[C@@H](O)[C@H](O)[C@H]2O)CC[C@]2(C)[C@H]3C(=O)C=C4[C@@H]5C[C@@](C)(C(=O)O)CC[C@]5(C)CC[C@@]4(C)[C@]3(C)CC[C@@H]12 [glycyrrhizic acid]
ratio of IFN-γ-positive cells among CD4-positive cells [1, 5]: did not cause any change
ratio of IL17A-positive cells among CD4-positive cells [1, 5]: did not cause any change
ratio of IL4-positive cells among CD4-positive T cells ([1]; lymph nodes, BLM for one week, FACS): significant decreases
mRNA of arginase (marker for M2 macrophages) [1, 6]: decreased
mRNA of interleukin 1 b [1, 6]: decreased
mRNA of interleukin 4 [1, 6]: decreased
ratio of IL4-positive cells among CD4-positive T cells ([1]; spleen, BLM for one week, FACS): significant decreases
number of myofibroblasts (α-SMA-positive fibroblasts) in the skin ([2]; BLM-induced scleroderma model mice, 30 mg/kg i.p. daily, four weeks): significant decrease
dermal thickness (thickening of the dermis) ([2]; BLM-induced scleroderma model mice, 30 mg/kg intraperitoneally every day for four weeks): reduced
amount of collagen fibers ([2]; BLM-induced scleroderma model mice, skin at injection site, 30 mg/kg i.p. daily, four weeks): decreased
amount of collagen fibers ([2]; control mice not subjected to BLM induction, 30 mg/kg i.p. daily, four weeks): did not cause any change
dermal thickness ([2]; control mice not subjected to BLM induction, 30 mg/kg intraperitoneally every day for four weeks): did not cause any change
mRNA of Col1a1 [2, 7]: significant decreases
mRNA of Col1a2 [2, 7]: significant decreases
mRNA of Col3a1 [2, 7]: significant decreases
mRNA of Mmp13 (collagenase) [2, 7]: significant increase
mRNA of thrombospondin (Thbs1) [2, 7]: decrease
extravasation of Evans blue [3]: significantly decreased
mRNA level of Snail1 [4]: significantly decreased
increase in cells that have undergone Endo-MT (stained for both VE-cadherin and FSP1) ([4]; immunostaining): suppressed
